Experimental data published in US20250360071A1, “AGENT FOR INDUCING CILIUM” (MED R&D Co. Ltd, priority 2022, published 2025).

Assays:
HFDPCs = test: Proliferation of HFDPCs (MTT), Experimental Example 1; format: cell-based, human; conditions: 48 hours, vs untreated cells
Excerpt: The activation effect by a glycoside of an oleanane-type triterpenoid was examined using dermal papilla cells of human hair follicles (HFDPCs) which are mesenchymal cells separated from the papilla of the scalp hair follicle of a normal human. As the glycoside of the oleanane-type triterpenoid (which may hereinafter be referred to as “saponin”), arganine D, arganine E, and butyroside D were used. A high proliferation rate of the HFDPCs is correlated with the acceleration of the hair growth cycle.
First, HFDPCs were seeded in a 96-well plate at […] and incubated at 37° C. in a humidified atmosphere of 5% CO2. As a culture medium, a culture medium for hair papilla cell growth to which growth factors (a bovine fetal serum, an insulin, a transferrin, a triiodothyronine, a bovine pituitary extract, or a cyproterone solution) had been added was used.
After 24 hours, the culture medium was exchanged with a culture medium containing each of various concentrations of each saponin, and the cells were incubated for 48 hours.
Subsequently, the cell proliferation was measured using 3-(4,5-dimethyl-thiazol-2-yl)-2,5-diphenyltetrazolium bromide (MTT). Specifically, an MTT reagent (5 mg/mL) was added to the cells and incubated for 8 hours, then 10% sodium dodecyl sulfate (SDS) was added thereto, and the cells were incubated overnight. Thereafter, the absorbance at 570 nm was measured using a microplate reader, and the cell proliferation was quantified as the proportion (%) of the absorbance to an absorbance of the untreated cells. In addition, the survival rate of cells was also measured by a trypan blue exclusion method.

dorsal skin = test: Gene ontology (GO), GO enrichment and tissue-specific expression analysis of transcriptome, Experimental Example 7; format: in vivo, mouse; conditions: 20th day
Method: Gene ontology (GO) analysis and GO enrichment analysis were performed based on the results of the transcriptome analysis in Experimental Example 6.
Subsequently, term enrichment analysis of the genes with expression increased specifically with respect to the skin tissue was performed. Using tissue-specific expression analysis (TSEA), genes related to the skin tissue were filtered, and functions that were specifically enriched in the maslinic acid treatment group and the tieghemelin treatment group and were not enriched in the minoxidil treatment group were selected.

C3H male mouse = test: Hair growth promoting effect in vivo, application to depilated dorsal skin, Experimental Example 5; conditions: 150 μL of 1% applied to dorsal skin every day for 20 days
Method: The oleanane-type triterpenoid was applied to the dorsal skin of a mouse and the hair growth promoting effect was examined. Maslinic acid was used as the oleanane-type triterpenoid. In addition, for comparison, a group in which minoxidil was used and a control group in which only a solvent was applied were prepared.
FIG. 12 is a schematic view showing an experimental schedule. After acclimatization of a C3H male mouse, the dorsal skin was depilated with a shaver and a depilatory cream. Thereafter, 150 μL of 1% minoxidil (n=8), 1% maslinic acid (n=6), or a solvent (n=8) was applied to the mouse in each group every day for 20 days, and the mouse was observed over time.
It is known that the hair cycle of a mouse has three stages of an anagen, a catagen, and a telogen. During the anagen (the 1st day to the 16th day), the hair follicle grows into the deep subcutaneous part. In the catagen (the 17th day to the 19th day), the hair follicle stops growing and regresses to the upper subcutaneous part. In the telogen (the 20th day to the 29th day), the hair shaft is in a state where it can be lost at any time. It is known that the color of the dorsal skin of a mouse changes to pink, gray, and black due to the hair cycle. FIG. 13 is a view showing a change in the color of the dorsal skin of a mouse due to the hair cycle.

HFDPC [1] = test: Quantitative real-time RT-PCR of hair growth markers in HFDPC, Experimental Example 3; format: cell-based, human; conditions: 48 hours; for expression level of the FGF1 gene in the HFDPC / expression level of the ALPL gene in the HFDPC / expression level of the CTNNB1 gene in HFDPC: vs control
Method: The HFDPC was treated with butyroside D, and then the expression of the hair growth marker was confirmed by quantitative real-time RT-PCR.
As the hair growth markers, a CTNNB1 gene (β-catenin), an ALPL gene (alkaline phosphatase), and an FGF1 gene (fiblobrast growth factor 1) were examined. It is known that the β-catenin induces anagen of the hair cycle and promotes the proliferation of keratinocytes. ALPL is a representative hair growth marker in the hair papilla cells. FGF1 is a marker for morphogenesis of hair follicles.
HFDPCs were seeded in a 6-well plate at 5×10^4 cells/well and incubated at 37° C. for 24 hours. Subsequently, the culture medium was removed and exchanged with a culture medium including 0 (Control), 0.5, 5, and 10 nM of butyroside D. In addition, for comparison, cells treated with a culture medium including minoxidil (0.1 μM), which is an existing pharmaceutical product, were also prepared.
Subsequently, after 48 hours, the cells were washed with cold PBS and a total RNA was extracted using an ISOGEN kit (Nippon Gene Co., Ltd.). Next, the total RNA was quantified using a NanoDrop 2000 spectrophotometer (Thermo Fisher Scientific) and quantitative real-time RT-PCR analysis was performed.
First, using a SuperScript III reverse transcription kit (Thermo Fisher Scientific), a cDNA was synthesized from the extracted total RNA by a cycling protocol of 95° C. for 10 minutes, 40 cycles of 95° C. for 15 seconds, and 60° C. for 1 minute.
Subsequently, a real-time PCR was performed using a 7500 Fast Real-Time PCR system (Software 1.3.1, Thermo Fisher Scientific) and TaqMan probes specific for CTNNB1, ALPL, and FGF1. GAPDH was used as an endogenous control and the relative mRNA amount was calculated by applying a 2^−ΔΔCt method by comparison with GAPDH.

HFDPC [2] = test: as above; format: cell-based, human; conditions: vs 0.1 M minoxidil (so in the source), 48 hours

**Q.** How did the “proliferation of HFDPCs” value (HFDPCs; 2 μM) turn out when C[C@@H]1O[C@@H](O[C@H]2[C@H](OC(=O)[C@]34CCC(C)(C)C[C@H]3C3=CC[C@@H]5[C@@]6(C)C[C@H](O)[C@H](O[C@@H]7O[C@H](CO[C@@H]8O[C@H](CO)[C@@H](O)[C@H](O)[C@H]8O)[C@@H](O)[C@H](O)[C@H]7O)[C@@](C)(CO)[C@@H]6[C@H](O)C[C@@]5(C)[C@]3(C)CC4)OC[C@@H](O)[C@@H]2O)[C@H](O)[C@H](O)[C@H]1O[C@@H]1OC[C@@H](O)[C@H](O[C@@H]2OC[C@](O)(CO)[C@H]2O)[C@H]1O [arganine E] was run?
**A.** significantly promotes the proliferation

**Q.** Nc1cc(N2CCCCC2)nc(N)[n+]1[O-] [minoxidil, reference compound] was tested. Which “number of genes with decreased expression common among the minoxidil, maslinic acid and tieghemelin treatment groups” value (dorsal skin) did it give?
**A.** 316

**Q.** And the “number of genes with increased expression common among the minoxidil, maslinic acid and tieghemelin treatment groups” value (dorsal skin)?
**A.** 342

**Q.** And the “influence on the body weight of the mouse” value (C3H male mouse)?
**A.** No influence on the body weight

**Q.** arganine D was tested. Which “proliferation of HFDPCs” value (HFDPCs; 2 μM) did it give?
**A.** significantly promotes the proliferation

**Q.** And the “proliferation of HFDPCs” value (HFDPCs; 5 μM)?
**A.** significantly promotes the proliferation

**Q.** What about the “proliferation of HFDPCs” value (HFDPCs; 10 μM) of the same molecule?
**A.** significantly promotes the proliferation

**Q.** What does the source list for butyroside D?
**A.** expression level of the FGF1 gene in the HFDPC (HFDPC [1]; 0.5 nM): significantly increased; expression level of the ALPL gene in the HFDPC (HFDPC [1]; 5 nM): significantly increased; expression level of the CTNNB1 gene in HFDPC (HFDPC [1]; 5 nM): significantly increased; expression level of the FGF1 gene in the HFDPC (HFDPC [1]; 5 nM): significantly increased; expression level of the ALPL gene in the HFDPC (HFDPC [1]; 10 nM): significantly increased; expression level of the CTNNB1 gene in HFDPC (HFDPC [1]; 10 nM): significantly increased; expression level of the FGF1 gene in the HFDPC (HFDPC [1]; 10 nM): significantly increased; effect of increasing the expression level of the ALPL gene compared with minoxidil positive control (sentence in the FGF1 paragraph) (HFDPC [1]; vs 0.1 μM minoxidil): more than the effect of the treatment with 0.1 μM minoxidil; effect of increasing the expression level of the ALPL gene compared with minoxidil positive control (HFDPC [2]): more than the effect of the treatment with 0.1 M minoxidil; effect of increasing the expression level of the CTNNB1 gene compared with minoxidil positive control (HFDPC [2]): more than the effect of the treatment with 0.1 M minoxidil; proliferation of HFDPCs (HFDPCs; 2 μM): significantly promotes the proliferation; proliferation of HFDPCs (HFDPCs; 5 μM): significantly promotes the proliferation; proliferation of HFDPCs (HFDPCs; 10 μM): significantly promotes the proliferation
